Data as given in patent US4068074A, “Cephalosporin derivatives having at the 3-position of the cephem ring a heterocyclic thiomethyl group with a carboxy or sulfo group and at the 7-position of the cephem ring an α-heterocylic acylaminophenyl-acetamide group” (priority 1974, dated 1978).
Converted amounts (≈) assume the structure as drawn. Like-named read-outs stand apart in the source and are kept apart here.

Tests used:
Proteus vulgaris OXK US = assay: MIC against bacteria (Table I), strain (1); format: cell-based; settings: (1) Proteus vulgaris OXK US; read-out: MIC
From the text: (§1) Now, for illustrating the excellent pharmacological effects of the compounds of this invention, the values of MIC (γ/ml.) of the compounds against various bacteria are shown in Table 1, in which the compounds of this invention used are shown by example numbers.
(1) Proteus vulgaris OXK US

Proteus vulgaris 0X 19US = assay: MIC against bacteria (Table I), strain (2); format: cell-based; settings: 0X19US; (2) Proteus vulgaris 0X 19US; read-out: MIC
From the text: as §1
(2) Proteus vulgaris 0X 19US

[1] = system: Proteus mirabilis IXM OM-19; assay: MIC against bacteria (Table I), strain (3); format: cell-based; settings: IXMOM19; (3) Proteus mirabilis IXM OM-19; read-out: MIC
From the text: as §1
(3) Proteus mirabilis IXM OM-19

[2] = system: Pseudomonas aeruginosa ATCC 8689; assay: MIC against bacteria (Table I), strain (4); format: cell-based; settings: ATCC8689; (4) Pseudomonas aeruginosa ATCC 8689; read-out: MIC
From the text: as §1
(4) Pseudomonas aeruginosa ATCC 8689

[3] = system: Pseudomonas aeruginosa 99 (Gentamycin resistant); assay: MIC against bacteria (Table I), strain (5); format: cell-based; settings: (5) Pseudomonas aeruginosa 99 (Gentamycin resistant); read-out: MIC
From the text: as §1
(5) Pseudomonas aeruginosa 99 (Gentamycin resistant)

[4] = system: Psuedomonas ovalis IMA 1002; assay: MIC against bacteria (Table I), strain (6); format: cell-based; settings: (6) Psuedomonas ovalis IMA 1002; read-out: MIC
From the text: as §1
(6) Psuedomonas ovalis IMA 1002

[5] = system: Escherichia coli kauffmann 0-1; assay: MIC against bacteria (Table I), strain (7); format: cell-based; settings: Escherichia coli
From the text: as §1
(7) Escherichia coli kauffmann 0-1

[6] = system: Klebsiella pneumoniae ATCC 10031; assay: MIC against bacteria (Table I), strain (8); format: cell-based; settings: ATCC10031; (8) Klebsiella pneumoniae ATCC 10031; read-out: MIC
From the text: as §1
(8) Klebsiella pneumoniae ATCC 10031

Salmonella typhi H901 W = assay: MIC against bacteria (Table I), strain (9); format: cell-based; settings: Salmonella enterica, TYPHI
From the text: as §1
(9) Salmonella typhi H901 W

Salmonella enteritidis = assay: MIC against bacteria (Table I), strain (10); format: cell-based; settings: Salmonella enterica
From the text: as §1
(10) Salmonella enteritidis

[7] = system: Shigella flexneri 2a 1675; assay: MIC against bacteria (Table I), strain (11); format: cell-based; settings: 2A1675; (11) Shigella flexneri 2a 1675; read-out: MIC
From the text: as §1

Shigella sonnei II 37148 = assay: MIC against bacteria (Table I), strain (12); format: cell-based; settings: II37148; (12) Shigella sonnei II 37148; read-out: MIC
From the text: as §1

[8] = system: Bacillus megatherium 10778; assay: MIC against bacteria (Table I), strain (13); format: cell-based; settings: (13) Bacillus megatherium 10778; read-out: MIC
From the text: as §1

[9] = system: Bacillus subtilis ATCC 6633; assay: MIC against bacteria (Table I), strain (14); format: cell-based; settings: ATCC6633; (14) Bacillus subtilis ATCC 6633; read-out: MIC
From the text: as §1
(14) Bacillus subtilis ATCC 6633

[10] = system: Micrococcus flavus ATCC 10240; assay: MIC against bacteria (Table I), strain (15); format: cell-based; settings: ATCC10240
From the text: as §1
(15) Micrococcus flavus ATCC 10240

[11] = system: Staphylococcus aureus 209P; assay: MIC against bacteria (Table I), strain (16); format: cell-based; settings: Staphylococcus aureus, 209P
From the text: as §1
(16) Staphylococcus aureus 209P

[12] = system: Staphylococcus Shimanishi; assay: MIC against bacteria (Table I), strain (17); format: cell-based
From the text: as §1
(17) Staphylococcus Shimanishi

Staphylococcus Onuma = assay: MIC against bacteria (Table I), strain (18); format: cell-based; settings: (18) Staphylococcus Onuma; read-out: MIC
From the text: as §1
(18) Staphylococcus Onuma

[13] = Solubility of salts in water (Table 2); format: physicochemical; settings: disodium salt, water, showing pH 7.4; read-out: Solubility: disodium salt dissolved in water in an amount of
From the text: An advantage of the compounds of this invention is that the salts, for example, sodium salts of these compounds are readily soluble in water at pH of living bodies, which makes them suitable for injections at high concentration. The solubility of these compounds are illustrated in Table 2 together with a control example.

[14] = Residual antibacterial activity after incubation with 90% plasma (Table 4); format: in vitro ADME, male Sprague-Dowley rat; settings: 90% rat plasma
Protocol: (§2) The relation between the reaction period of time and the antibacterial activity (residual activity, %) when these compounds are incubated with the plasma and the liver homogenate of a male Sprague-Dowley rat is shown in Table 4. The residual antibacterial activity was measured by a thin-layer cup method according to Bacillus subtilis ATCC 6633.
A*Residual activity (%) when incubated with 90% plasma.

[15] = Residual antibacterial activity after incubation with 10% liver homogenate (Table 4); format: in vitro ADME, male Sprague-Dowley rat; settings: 10% rat liver homogenate
Protocol: as §2
B*Residual activity (%) when incubated with 10% liver homogenate.

Work on `O=C(O)CCc1nnc(SCC2=C(C(=O)O)N3C(=O)[C@@H](NC(=O)[C@H](NC(=O)c4cnccc4O)c4ccccc4)[C@H]3SC2)s1` [Example 6, 7-[D-α-(4-hydroxynicotinoylamido)-α-phenylacetamido]-3-(5-carboxyethyl-1,3,4-thiadiazol-2-yl)thiomethyl-Δ^3-cephem-4-carboxylic acid] yielded an MIC (Proteus vulgaris OXK US) of less than 0.09 µg/mL, an MIC (Proteus vulgaris 0X 19US) of less than 0.09 µg/mL and an MIC [1] of 0.39 µg/mL (≈ 0.594 µM). It also gave an MIC [2] of 12.5 µg/mL (≈ 19 µM), an MIC [3] of 6.25 µg/mL (≈ 9.52 µM) and an MIC [4] of 6.25 µg/mL (≈ 9.52 µM). The MIC [5] was 3.13 µg/mL (≈ 4.77 µM), the MIC [6] was 6.25 µg/mL (≈ 9.52 µM) and the MIC (Salmonella typhi H901 W) was 1.56 µg/mL (≈ 2.38 µM). It also gave an MIC (Salmonella enteritidis; ENTERITIDIS) of 0.39 µg/mL (≈ 0.594 µM), an MIC [7] of 0.78 µg/mL (≈ 1.19 µM) and an MIC (Shigella sonnei II 37148) of 3.13 µg/mL (≈ 4.77 µM). For the same compound, the MIC [8] was 0.39 µg/mL (≈ 0.594 µM), the MIC [9] was 0.39 µg/mL (≈ 0.594 µM) and the MIC ([10]; (15) Micrococcus flavus ATCC 10240, read-out: MIC) was 6.25 µg/mL (≈ 9.52 µM). For the same compound, the MIC [11] was 1.56 µg/mL (≈ 2.38 µM), the MIC ([12]; (17) Staphylococcus Shimanishi, read-out: MIC) was 6.25 µg/mL (≈ 9.52 µM) and the MIC (Staphylococcus Onuma) was 12.5 µg/mL (≈ 19 µM). It also gave a solubility [13] greater than 200 mg/mL, a remaining at 0.25 h ([14]; 90% plasma, 15 minute) of 92% and a remaining at 0.5 h ([14]; 90% plasma, 30 minute) of 102%. The remaining at 1.5 h ([14]; 90% plasma, 90 minute) was 102%, the Residual activity ([14]; 0 minute) was 100% and the remaining at 0.25 h ([15]; 10% liver homogenate, 15 minute, read-out: Residual activity) was 95.7%. The remaining at 0.5 h ([15]; 10% liver homogenate, 30 minute, read-out: Residual activity) was 89.1%, the remaining at 1.5 h ([15]; 10% liver homogenate, 90 minute, read-out: Residual activity) was 91.3% and the Residual activity ([15]; 0 minute) was 100%.

`COc1ccncc1C(=O)N[C@@H](C(=O)N[C@@H]1C(=O)N2C(C(=O)O)=C(CSc3nnc(SCC(=O)O)s3)CS[C@H]12)c1ccccc1` [Example 26, 7-[D-α-(4-methoxynicotinoylamido)-α-phenylacetamido]-3-(5-carboxymethylthio-1,3,4-thiadiazole-2-yl)thiomethyl-Δ^3-cephem-4-carboxylic acid] showed an MIC (Proteus vulgaris OXK US) of 0.19 µg/mL (≈ 0.276 µM), an MIC (Proteus vulgaris 0X 19US) of 0.39 µg/mL (≈ 0.566 µM) and an MIC [1] of 0.78 µg/mL (≈ 1.13 µM). It also gave an MIC [2] of 12.5 µg/mL (≈ 18.1 µM), an MIC [3] of 12.5 µg/mL (≈ 18.1 µM) and an MIC [4] of 25 µg/mL (≈ 36.3 µM). For the same compound, the MIC [5] was 6.25 µg/mL (≈ 9.07 µM), the MIC [6] was 12.5 µg/mL (≈ 18.1 µM) and the MIC (Salmonella typhi H901 W) was 6.25 µg/mL (≈ 9.07 µM). For the same compound, the MIC (Salmonella enteritidis; (10) Salmonella enteritidis, read-out: MIC) was 1.56 µg/mL (≈ 2.26 µM), the MIC [7] was 3.13 µg/mL (≈ 4.54 µM) and the MIC (Shigella sonnei II 37148) was 6.25 µg/mL (≈ 9.07 µM). For the same compound, the MIC [8] was 0.78 µg/mL (≈ 1.13 µM), the MIC [9] was 0.78 µg/mL (≈ 1.13 µM) and the MIC ([10]; Micrococcus flavus) was 6.25 µg/mL (≈ 9.07 µM). It also gave an MIC [11] of 1.56 µg/mL (≈ 2.26 µM), an MIC ([12]; Staphylococcus) of 6.25 µg/mL (≈ 9.07 µM) and an MIC (Staphylococcus Onuma) of 12.5 µg/mL (≈ 18.1 µM). For the same compound, the solubility [13] was greater than 200 mg/mL.
